From ChEMBL document CHEMBL1158303, “Macrocarpals H, I, and J from the Leaves of Eucalyptus globulus” (1996)
≈ marks a conversion by molar mass, not a printed value.

Assays:
Streptococcus sobrinus [1] = assay: Inhibition of Streptococcus sobrinus glucosyltransferase assessed as blockade of adherent water insoluble glucan synthesis at 100 ug/mL
Streptococcus sobrinus [2] = assay: Inhibition of Streptococcus sobrinus glucosyltransferase assessed as blockade of adherent water insoluble glucan synthesis at 10 ug/mL
Streptococcus sobrinus [3] = assay: Inhibition of Streptococcus sobrinus glucosyltransferase assessed as blockade of adherent water insoluble glucan synthesis at 1 ug/mL
Porphyromonas gingivalis = assay: Antibacterial activity against Porphyromonas gingivalis 33277 by broth dilution method; assay type: functional
Capnocytophaga ochracea = assay: Antibacterial activity against Capnocytophaga ochracea 33596 by broth dilution method; assay type: functional
Streptococcus sobrinus [4] = assay: Antibacterial activity against Streptococcus sobrinus B13 by broth dilution method; assay type: functional
Streptococcus mutans [5] = assay: Antibacterial activity against Streptococcus mutans LA7 by broth dilution method; assay type: functional
Prevotella intermedia = assay: Antibacterial activity against Prevotella intermedia 25611 by broth dilution method; assay type: functional
Fusobacterium nucleatum = assay: Antibacterial activity against Fusobacterium nucleatum 25586 by broth dilution method; assay type: functional
Streptococcus sobrinus [6] = assay: Antibacterial activity against Streptococcus sobrinus 6715 by broth dilution method; assay type: functional
[7] = system: Prevotella melaninogenica; assay: Antibacterial activity against Prevotella melaninogenica 25845 by broth dilution method; assay type: functional
Streptococcus mutans [8] = assay: Antibacterial activity against Streptococcus mutans Ingbritt by broth dilution method; assay type: functional
Actinomyces viscosus = assay: Antibacterial activity against Actinomyces viscosus 15987 by broth dilution method; assay type: functional

| Structure (SMILES) | inhibition (Streptococcus sobrinus [1]) | inhibition (Streptococcus sobrinus [2]) | inhibition (Streptococcus sobrinus [3]) | MIC (Porphyromonas gingivalis) | MIC (Capnocytophaga ochracea) | MIC (Streptococcus sobrinus [4]) | MIC (Streptococcus mutans [5]) | MIC (Prevotella intermedia) | MIC (Fusobacterium nucleatum) | MIC (Streptococcus sobrinus [6]) | MIC [7] | MIC (Streptococcus mutans [8]) | MIC (Actinomyces viscosus) |
| --- | --- | --- | --- | --- | --- | --- | --- | --- | --- | --- | --- | --- | --- |
| O=C(O[C@@H]1Cc2c(O)cc(O)cc2O[C@@H]1c1cc(O)c(O)c(O)c1)c1cc(O)c(O)c(O)c1 | 26.5% | 10.5% | 3% | – | – | – | – | – | – | – | – | – | – |
| CC(=O)CC[C@@H]1[C@H]([C@H]2C(=O)CC[C@]2(C)C(CC(C)C)c2c(O)c(C=O)c(O)c(C=O)c2O)C1(C)C (some centres not stated) [EUCALYPTONE] | 97.6% | 44% | 4.4% | 1.56 µg/mL (≈ 3.21 µM) | 3.13 µg/mL (≈ 6.43 µM) | 25 µg/mL (≈ 51.4 µM) | 12.5 µg/mL (≈ 25.7 µM) | 0.78 µg/mL (≈ 1.6 µM) | 6.25 µg/mL (≈ 12.8 µM) | 25 µg/mL (≈ 51.4 µM) | 3.13 µg/mL (≈ 6.43 µM) | 12.5 µg/mL (≈ 25.7 µM) | 3.13 µg/mL (≈ 6.43 µM) |
| CC(C)C[C@@H](c1c(O)c(C=O)c(O)c(C=O)c1O)[C@@]1(C)CC[C@@H]2[C@@H]1[C@H]1[C@@H](CC[C@@]2(C)O)C1(C)C [MACROCARPAL A] | 97.1% | 75.4% | 9.7% | 0.39 µg/mL (≈ 0.825 µM) | 0.78 µg/mL (≈ 1.65 µM) | 1.56 µg/mL (≈ 3.3 µM) | 0.78 µg/mL (≈ 1.65 µM) | 0.39 µg/mL (≈ 0.825 µM) | 6.25 µg/mL (≈ 13.2 µM) | 1.56 µg/mL (≈ 3.3 µM) | 0.78 µg/mL (≈ 1.65 µM) | 0.78 µg/mL (≈ 1.65 µM) | 0.39 µg/mL (≈ 0.825 µM) |
| CC(C)C[C@H](c1c(O)c(C=O)c(O)c(C=O)c1O)[C@@]1(C)CC[C@@H]2[C@@H]1[C@H]1[C@@H](CC[C@@]2(C)O)C1(C)C [MACROCARPAL B] | 97.1% | 67.6% | 10.1% | 0.78 µg/mL (≈ 1.65 µM) | 1.56 µg/mL (≈ 3.3 µM) | 3.13 µg/mL (≈ 6.62 µM) | 1.56 µg/mL (≈ 3.3 µM) | 1.56 µg/mL (≈ 3.3 µM) | 3.13 µg/mL (≈ 6.62 µM) | 3.13 µg/mL (≈ 6.62 µM) | 3.13 µg/mL (≈ 6.62 µM) | 3.13 µg/mL (≈ 6.62 µM) | 0.39 µg/mL (≈ 0.825 µM) |
| C=C1CC[C@@H]2[C@H]([C@H]3[C@H]1CC[C@]3(C)[C@@H](CC(C)C)c1c(O)c(C=O)c(O)c(C=O)c1O)C2(C)C [MACROCARPAL C] | 98.9% | 92.6% | 18.9% | 0.2 µg/mL (≈ 0.44 µM) | 0.39 µg/mL (≈ 0.858 µM) | 1.56 µg/mL (≈ 3.43 µM) | 0.39 µg/mL (≈ 0.858 µM) | 0.39 µg/mL (≈ 0.858 µM) | 0.78 µg/mL (≈ 1.72 µM) | 1.56 µg/mL (≈ 3.43 µM) | 1.56 µg/mL (≈ 3.43 µM) | 0.39 µg/mL (≈ 0.858 µM) | 0.2 µg/mL (≈ 0.44 µM) |
| CC(C)C[C@@H](c1c(O)c(C=O)c(O)c(C=O)c1O)[C@@]1(C)CC[C@H]2C1=C[C@H](C(C)(C)O)CC[C@H]2C [MACROCARPAL D] | 99% | 78.2% | 17.3% | 0.39 µg/mL (≈ 0.825 µM) | 1.56 µg/mL (≈ 3.3 µM) | 0.78 µg/mL (≈ 1.65 µM) | 0.78 µg/mL (≈ 1.65 µM) | 0.39 µg/mL (≈ 0.825 µM) | 6.25 µg/mL (≈ 13.2 µM) | 3.13 µg/mL (≈ 6.62 µM) | 1.56 µg/mL (≈ 3.3 µM) | 1.56 µg/mL (≈ 3.3 µM) | 0.39 µg/mL (≈ 0.825 µM) |
| C=C1CC[C@@H]([C@H](CC(C)C)c2c(O)c(C=O)c(O)c(C=O)c2O)[C@]2(C)CC[C@@H](C(C)(C)O)C[C@@H]12 [MACROCARPAL H] | 97.6% | 64% | 2.9% | 0.78 µg/mL (≈ 1.65 µM) | 1.56 µg/mL (≈ 3.3 µM) | 3.13 µg/mL (≈ 6.62 µM) | 1.56 µg/mL (≈ 3.3 µM) | 0.78 µg/mL (≈ 1.65 µM) | 6.25 µg/mL (≈ 13.2 µM) | 3.13 µg/mL (≈ 6.62 µM) | 3.13 µg/mL (≈ 6.62 µM) | 3.13 µg/mL (≈ 6.62 µM) | 0.39 µg/mL (≈ 0.825 µM) |
| CC(C)C[C@H](c1c(O)c(C=O)c(O)c(C=O)c1O)[C@@H]1CC[C@@](C)(O)[C@@H]2C[C@H](C(C)(C)O)CC[C@]21C [MACROCARPAL I] | 86.9% | 26.3% | 0% | 6.25 µg/mL (≈ 12.7 µM) | 12.5 µg/mL (≈ 25.5 µM) | 100 µg/mL (≈ 204 µM) | 25 µg/mL (≈ 51 µM) | 12.5 µg/mL (≈ 25.5 µM) | 25 µg/mL (≈ 51 µM) | 100 µg/mL (≈ 204 µM) | 12.5 µg/mL (≈ 25.5 µM) | 50 µg/mL (≈ 102 µM) | 12.5 µg/mL (≈ 25.5 µM) |
| CC(C)CC(c1c(O)c(C=O)c(O)c(C=O)c1O)[C@@H]1CC[C@@](C)(O)[C@@H]2C[C@H](C(C)(C)O)CC[C@]21C (some centres not stated) [MACROCARPAL J] | 77.1% | 29.7% | 6.9% | 6.25 µg/mL (≈ 12.7 µM) | 12.5 µg/mL (≈ 25.5 µM) | 100 µg/mL (≈ 204 µM) | 25 µg/mL (≈ 51 µM) | 12.5 µg/mL (≈ 25.5 µM) | 25 µg/mL (≈ 51 µM) | 100 µg/mL (≈ 204 µM) | 12.5 µg/mL (≈ 25.5 µM) | 50 µg/mL (≈ 102 µM) | 12.5 µg/mL (≈ 25.5 µM) |
| Cc1ccc(C(C)C)c(O)c1 [THYMOL] | – | – | – | 200 µg/mL (≈ 1330 µM) | 100 µg/mL (≈ 666 µM) | 400 µg/mL (≈ 2660 µM) | 400 µg/mL (≈ 2660 µM) | 200 µg/mL (≈ 1330 µM) | 50 µg/mL (≈ 333 µM) | 200 µg/mL (≈ 1330 µM) | 200 µg/mL (≈ 1330 µM) | 400 µg/mL (≈ 2660 µM) | 200 µg/mL (≈ 1330 µM) |
